The source made the active and inactive calls. The rule behind the calls is not given here.
Key:
[1] = target: T1, von Hippel-Lindau disease tumor suppressor/Bromodomain-containing protein 4 (Homo sapiens, UniProt O60885+P40337); test: (§1) PROTAC activity at VHL/BRD4 in HEK293 cells assessed as induction of BRD4 degradation by measuring maximal level of degradation at 3 uM measured every 15 mins for 24 hrs in presence of VHL based ligand (2S,4R)-1-((S)-2-(2,3-dihydroxybenzamido)-3,3-dimethylbutanoyl)-4-hydroxy-N-(4-(4-methylthiazol-5-yl)benzyl)pyrrolidine-2-carboxamide by HiBiT based Combinatorial Ubiquitination Real-time PROteolysis analysis; assay type: cell-based
[2] = target: T1, von Hippel-Lindau disease tumor suppressor/Bromodomain-containing protein 4; test: as §1, with “at 10” for “at 3”; assay type: cell-based
[3] = target: T1, von Hippel-Lindau disease tumor suppressor/Bromodomain-containing protein 4; test: as §1, with “measuring Tmax” for “measuring maximal level of degradation”, “at 0.3” for “at 3”; assay type: cell-based
[4] = target: T1, von Hippel-Lindau disease tumor suppressor/Bromodomain-containing protein 4; test: as §1, with “measuring Tmax” for “measuring maximal level of degradation”, “at 1” for “at 3”; assay type: cell-based
[5] = target: T1, von Hippel-Lindau disease tumor suppressor/Bromodomain-containing protein 4; test: as §1, with “measuring Tmax” for “measuring maximal level of degradation”, “at 10” for “at 3”; assay type: cell-based
[6] = target: T1, von Hippel-Lindau disease tumor suppressor/Bromodomain-containing protein 4; test: as §1, with “BRD4/VHL” for “VHL/BRD4”, “human MCF7” for “HEK293”, “residual activity” for “maximal level of degradation”, “incubated” for “measured every 15 mins”, “Western blot” for “HiBiT”; assay type: cell-based
[7] = target: T1, von Hippel-Lindau disease tumor suppressor/Bromodomain-containing protein 4; test: (§2) PROTAC activity at BRD4/VHL in human MCF7 cells assessed as induction of BRD4 degradation by measuring residual activity at 10 uM incubated for 24 hrs in presence of VHL based ligand (2S,4R)-1-((S)-2-(2,3-dihydroxybenzamido)-3,3-dimethylbutanoyl)-4-hydroxy-N-(4-(4-methylthiazol-5-yl)benzyl)pyrrolidine-2-carboxamide by Western blot based Combinatorial Ubiquitination Real-time PROteolysis analysis; assay type: cell-based
[8] = target: T1, von Hippel-Lindau disease tumor suppressor/Bromodomain-containing protein 4; test: as §2, with “presence of 100 nM VHL based” for “presence of VHL based”; assay type: cell-based
[9] = target: T1, von Hippel-Lindau disease tumor suppressor/Bromodomain-containing protein 4; test: as §2, with “activity at 30 nM incubated for” for “activity at 10 uM incubated for”, “presence of 300 nM VHL based” for “presence of VHL based”; assay type: cell-based
[10] = target: T1, von Hippel-Lindau disease tumor suppressor/Bromodomain-containing protein 4; test: as §2, with “activity at 100 nM incubated for” for “activity at 10 uM incubated for”, “presence of 300 nM VHL based” for “presence of VHL based”; assay type: cell-based
[11] = target: T1, von Hippel-Lindau disease tumor suppressor/Bromodomain-containing protein 4; test: as §2, with “activity at 1 uM incubated” for “activity at 10 uM incubated”, “presence of 300 nM VHL based” for “presence of VHL based”; assay type: cell-based
[12] = target: T1, von Hippel-Lindau disease tumor suppressor/Bromodomain-containing protein 4; test: as §2, with “activity at 300 nM incubated for” for “activity at 10 uM incubated for”, “presence of 1 uM VHL based” for “presence of VHL based”; assay type: cell-based
[13] = target: T1, von Hippel-Lindau disease tumor suppressor/Bromodomain-containing protein 4; test: as §2, with “activity at 100 nM incubated for” for “activity at 10 uM incubated for”, “presence of 3 uM VHL based” for “presence of VHL based”; assay type: cell-based
[14] = target: T1, von Hippel-Lindau disease tumor suppressor/Bromodomain-containing protein 4; test: as §2, with “activity at 1 uM incubated” for “activity at 10 uM incubated”, “presence of 3 uM VHL based” for “presence of VHL based”; assay type: cell-based
MV4-11 = test: Antitumor activity against human MV4-11 cells xenografted in nude mouse assessed as reduction in BRD4 level in tumor at 10 mg/kg, ip administered for 4 hrs and measured at 9 to 12 hrs in presence of VHL based ligand (2S,4R)-1-((S)-2-(2,3-dihydroxybenzamido)-3,3-dimethylbutanoyl)-4-hydroxy-N-(4-(4-methylthiazol-5-yl)benzyl)pyrrolidine-2-carboxamide; assay type: functional, organism-based; conditions: time 9-12 hrs
[15] = target: T1, von Hippel-Lindau disease tumor suppressor/Bromodomain-containing protein 4; test: (§3) PROTAC activity at VHL/BRD4 in HEK293 cells assessed as induction of BRD4 degradation by measuring degradation rate at 1 uM measured every 15 mins for 24 hrs in presence of BRD4 based ligand ((4S)-6-(4-chlorophenyl)-4-(2-(ethylamino)-2-oxoethyl)-1-methyl4Hbenzo[f][1,2,4]triazolo [4,3-a][1,4]diazepin-8-yl)boronic acid by HiBiT based Combinatorial Ubiquitination Real-time PROteolysis analysis; assay type: cell-based
[16] = target: T1, von Hippel-Lindau disease tumor suppressor/Bromodomain-containing protein 4; test: as §3, with “measuring maximal level of” for “measuring”, “degradation” for “degradation rate”, “at 10” for “at 1”; assay type: cell-based
[17] = target: T1, von Hippel-Lindau disease tumor suppressor/Bromodomain-containing protein 4; test: as §3, with “Tmax” for “degradation rate”; assay type: cell-based
[18] = target: T1, von Hippel-Lindau disease tumor suppressor/Bromodomain-containing protein 4; test: (§4) PROTAC activity at BRD4/VHL in human MCF7 cells assessed as induction of BRD4 degradation by measuring residual activity at 30 nM incubated for 24 hrs in presence of BRD4 based ligand ((4S)-6-(4-chlorophenyl)-4-(2-(ethylamino)-2-oxoethyl)-1-methyl4Hbenzo[f][1,2,4]triazolo [4,3-a][1,4]diazepin-8-yl)boronic acid by Western blot based Combinatorial Ubiquitination Real-time PROteolysis analysis; assay type: cell-based
[19] = target: T1, von Hippel-Lindau disease tumor suppressor/Bromodomain-containing protein 4; test: as §4, with “100” for “30”; assay type: cell-based
[20] = target: T1, von Hippel-Lindau disease tumor suppressor/Bromodomain-containing protein 4; test: as §4, with “activity at 1 uM incubated for” for “activity at 30 nM incubated for”, “presence of 3 uM BRD4 based” for “presence of BRD4 based”; assay type: cell-based
[21] = target: T1, von Hippel-Lindau disease tumor suppressor/Bromodomain-containing protein 4; test: as §4, with “activity at 3 uM incubated for” for “activity at 30 nM incubated for”, “presence of 3 uM BRD4 based” for “presence of BRD4 based”; assay type: cell-based
[22] = target: T1, von Hippel-Lindau disease tumor suppressor/Bromodomain-containing protein 4; test: as §4, with “activity at 300 nM incubated” for “activity at 30 nM incubated”, “presence of 10 uM BRD4 based” for “presence of BRD4 based”; assay type: cell-based

T1 sequence (P40337 whole entry, looked up, other chains not shown): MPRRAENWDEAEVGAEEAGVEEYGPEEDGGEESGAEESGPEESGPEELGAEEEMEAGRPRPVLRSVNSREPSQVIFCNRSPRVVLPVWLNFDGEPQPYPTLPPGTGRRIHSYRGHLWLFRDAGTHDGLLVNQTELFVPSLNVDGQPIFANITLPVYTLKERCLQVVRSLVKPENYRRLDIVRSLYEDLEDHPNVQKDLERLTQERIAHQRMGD

In the case of `CCNC(=O)C[C@@H]1N=C(c2ccc(Cl)cc2)c2cc(B(O)O)ccc2-n2c(C)nnc21`, the Emax [1] was 93%, the Emax [2] was 96% and the Tmax [3] was 7.75 h. The Tmax [4] was 19.5 h, the Tmax [5] was 22.2 h and the Activity [6] was 73%. For the same compound, the Activity [7] was 95%, the Activity [8] was 55% and the Activity [9] was 104%. The Activity [10] was 77%, the Activity [11] was 48% and the Activity [12] was 38%. The Activity [13] was 74%, the Activity [14] was 22% and the Activity (MV4-11) was “Active”.

With `Cc1ncsc1-c1ccc(CNC(=O)[C@@H]2C[C@@H](O)CN2C(=O)[C@@H](NC(=O)c2cccc(O)c2O)C(C)(C)C)cc1` the Activity [15] was 0.548 h⁻¹, the Emax [16] was 96% and the Tmax [17] was 19.5 h. It also gave an Activity [18] of 91%, an Activity [19] of 89% and an Activity [20] of 22%. The Activity [21] was 16% and the Activity [22] was 40%.

Reference: ChEMBL document CHEMBL5543126, “Combinatorial Ubiquitination REal-time PROteolysis (CURE-PROs): A Modular Platform for Generating Reversible, Self-Assembling Bifunctional Targeted Degraders” (J Med Chem, 2024)
